Laboratory results reported in patent US10131673B2, “Piperidine substituted tricyclic pyrazolo[1,5-a]pyrimidine derivatives with inhibitory activity on the replication of the respiratory syncytial virus (RSV)” (priority 2014, dated 2018).

Columns and labels:
rgRSV224 virus = test: microbe, parasite or virus in culture; assay type: cell-based, respiratory syncytial virus (RSV); settings: human respiratory syncytial virus, HeLa, 72 h, read-out: RSV HELA pEC50 (converted)

Protocol for HeLa cells: Black 384-well clear-bottom microtiter plates (Corning, Amsterdam, The Netherlands) were filled via acoustic drop ejection using the echo liquid handler (Labcyte, Sunnyvale, Calif.). 200 nL of compound stock solutions (100% DMSO) were transferred to the assay plates. 9 serial 4-fold dilutions of compound were made, creating per quadrant the same compound concentration. The assay was initiated by adding 10 μL of culture medium to each well (RPMI medium without phenol red, 10% FBS-heat inactivated, 0.04% gentamycin (50 mg/mL). All addition steps are done by using a multidrop dispenser (Thermo Scientific, Erembodegem, Belgium). Next, rgRSV224 virus (MOI=1) diluted in culture medium was added to the plates. rgRSV224 virus is an engineered virus that includes an additional GFP gene (Hallak L K, Spillmann D, Collins P L, Peeples M E. Glycosaminoglycan sulfation requirements for respiratory syncytial virus infection; Journal of virology (2000), 74(22), 10508-13) and was in-licensed from the NIH (Bethesda, Md., USA). Finally, 20 μL of a HeLa cell suspension (3,000 cells/well) were plated. Medium, virus- and mock-infected controls were included in each test. The wells contain 0.05% DMSO per volume. Cells were incubated at 37° C. in a 5% CO2 atmosphere. Three days post-virus exposure, viral replication was quantified by measuring GFP expression in the cells by an in house developed MSM laser microscope (Tibotec, Beerse, Belgium). The EC50 was defined as the 50% inhibitory concentration for GFP expression. In parallel, compounds were incubated for three days in a set of white 384-well microtiter plates (Corning) and the cytotoxicity of compounds in HeLa cells was determined by measuring the ATP content of the cells using the ATPlite kit (Perkin Elmer, Zaventem, Belgium) according to the manufacturer's instructions. The CC50 was defined as the 50% concentration for cytotoxicity.

Question: `FC(F)(F)c1cccc2ncnc(N3CCCCC3c3cc4nc5c(c(N6CCOCC6)n4n3)CCCC5)c12` (stereo not shown) [Compound P11, 4-(2-(1-(5-(trifluoromethyl)quinazolin-4-yl)piperidin-2-yl)-5,6,7,8-tetrahydropyrazolo[5,1-b]quinazolin-9-yl)morpholine] was tested. Which “TOX HELA pCC50” value (HeLa cells) did it give?
Answer: 4.7

Question: What about the EC50 (rgRSV224 virus) of the same compound?
Answer: 676 nM

Question: Which results are given for `Cc1ccc2nc(NS(C)(=O)=O)nc(N3CCCCC3c3cc4nc5c(c(N6CCOCC6)n4n3)CCCC5)c2c1` (stereo not shown) [Compound P9, N-(6-methyl-4-(2-(9-morpholino-5,6,7,8-tetrahydropyrazolo[5,1-b]-quinazolin-2-yl)piperidin-1-yl)quinazolin-2-yl)methanesulfonamide]?
Answer: TOX HELA pCC50 (HeLa cells): 4.3; EC50 (rgRSV224 virus): 13.5 nM

Question: Which “TOX HELA pCC50” value (HeLa cells) does the source give for `Cc1cccc2ncnc(N3CCCCC3c3cc4nc5c(c(N6CCOCC6)n4n3)CCOC5)c12` (stereo not shown) [Compound P29, 2-(1-(5-methylquinazolin-4-yl)piperidin-2-yl)-9-morpholino-7,8-dihydro-5H-pyrano[3,4-d]pyrazolo[1,5-a]pyrimidine] here?
Answer: 4

Question: What about the EC50 (rgRSV224 virus) of the same compound?
Answer: 3720 nM

Question: With `Cc1ccc(NS(C)(=O)=O)c(C(=O)N2CCCCC2c2cc3nc4c(c(N5CCOCC5)n3n2)CCC4)c1` (stereo not shown) [Compound P20, N-(4-methyl-2-(2-(8-morpholino-6,7-dihydro-5H-cyclopenta[d]pyrazolo-[1,5-a]pyrimidin-2-yl)piperidine-1-carbonyl)phenyl)methanesulfonamide] as the compound, how does the “TOX HELA pCC50” value (HeLa cells) read?
Answer: 4.2

Question: What about the EC50 (rgRSV224 virus) of the same compound?
Answer: 22.9 nM

Question: For `Cc1ccc(NS(C)(=O)=O)c(C(=O)N2CCCCC2c2cc3nc4c(cn3n2)CCCC4)c1` (stereo not shown) [Compound P17, N-(4-methyl-2-(2-(5,6,7,8-tetrahydropyrazolo[5,1-b]quinazolin-2-yl)-piperidine-1-carbonyl)phenyl)methanesulfonamide], which “TOX HELA pCC50” value (HeLa cells) is on record?
Answer: 4.6

Question: And the EC50 (rgRSV224 virus)?
Answer: 97.7 nM

Question: How did the “TOX HELA pCC50” value (HeLa cells) turn out when `Cc1cccc2ncnc(N3CCCCC3c3cc4nc5c(c(C)n4n3)CCCC5)c12` (stereo not shown) [Compound P35, 9-methyl-2-(1-(5-methylquinazolin-4-yl)piperidin-2-yl)-5,6,7,8-tetrahydropyrazolo[5,1-b]quinazoline] was run?
Answer: 4.6

Question: What about the EC50 (rgRSV224 virus) of the same compound?
Answer: 776 nM

Question: `Cc1nc2cc(C3CCCCN3c3ncnc4cccc(C)c34)nn2c2c1CCCC2` (racemic) [Compound P36, 5-methyl-2-(1-(5-methylquinazolin-4-yl)piperidin-2-yl)-6,7,8,9-tetrahydropyrazolo[1,5-a]quinazoline] was tested. Which “TOX HELA pCC50” value (HeLa cells) did it give?
Answer: 4.6

Question: And the EC50 (rgRSV224 virus)?
Answer: 977 nM

Question: With `Cc1cccc2ncnc(N3CCCCC3c3cc4nc5c(c(N6CCOCC6)n4n3)COCC5)c12` (stereo not shown) [Compound P30, 2-(1-(5-methylquinazolin-4-yl)piperidin-2-yl)-9-morpholino-6,8-dihydro-5H-pyrano[4,3-d]pyrazolo[1,5-a]pyrimidine] as the compound, how does the “TOX HELA pCC50” value (HeLa cells) read?
Answer: 4

Question: What about the EC50 (rgRSV224 virus) of the same compound?
Answer: 282 nM

Question: How did the “TOX HELA pCC50” value (HeLa cells) turn out when `Cc1ccc(NS(C)(=O)=O)c(C(=O)N2CCCCC2c2cc3nc4c(c(N(C)C)n3n2)CCCC4)c1` (stereo not shown) [Compound P15, N-(2-(2-(9-(dimethylamino)-5,6,7,8-tetrahydropyrazolo[5,1-b]quinazolin-2-yl)piperidine-1-carbonyl)-4-methylphenyl)methanesulfonamide] was run?
Answer: 4.6

Question: And the EC50 (rgRSV224 virus)?
Answer: 1.78 nM

Question: `CCOc1nc(N2CCCCC2c2cc3nc4c(c(N5CCOCC5)n3n2)COCC4)c2c(C)cccc2n1` (stereo not shown) [Compound P33, 2-(1-(2-ethoxy-5-methylquinazolin-4-yl)piperidin-2-yl)-9-morpholino-6,8-dihydro-5H-pyrano[4,3-d]pyrazolo[1,5-a]pyrimidine] was tested. Which “TOX HELA pCC50” value (HeLa cells) did it give?
Answer: 4.4

Question: And the EC50 (rgRSV224 virus)?
Answer: 813 nM

Question: How did the “TOX HELA pCC50” value (HeLa cells) turn out when `Cc1cccc2ncnc(N3CCCCC3c3cc4nc5c(c(N(C)C)n4n3)CCCC5)c12` (stereo not shown) [Compound P16, N,N-dimethyl-2-(1-(5-methylquinazolin-4-yl)piperidin-2-yl)-5,6,7,8-tetrahydropyrazolo[5,1-b]quinazolin-9-amine] was run?
Answer: 4

Question: What about the EC50 (rgRSV224 virus) of the same compound?
Answer: 407 nM
